Results taken from patent US20090011057A1, “FORMULATIONS AND METHODS FOR INHIBITING ANAEROBES, GRAM NEGATIVE BACTERIA, PROTOZOA AND OTHER MICROBIAL GROWTH WITH MORINDA CITRIFOLIA L. ENHANCED FORMULATIONS” (priority 2007, published 2009).
Converted amounts (≈) assume the structure as drawn.

Key:
Format in all cases: cell-based
[1] = system: Actinomyces viscosus (ATCC 15987); test: Anti-infective in vitro assay, growth inhibition (turbidity); settings: ATCC15987, read-out: Reference Compound, Concurrent (MIC)
Method: (§1) In a preliminary investigations the potential usage of the M. citrifolia Noni fruit juice on bacterial species and various protozoan species, which are known to cause economic downfalls in humans and livestock industries were assessed.
(§2) Method employed in this study have been adapted from the scientific literature to maximize reliability and reproducibility. Reference standards were run as an integral part of each assay to ensure the validity of the results obtained. Materials utilized are described in the following charts.

[2] = system: Trichomonas foetus (Br. M. Strain); test: Anti-infective in vitro assay, inhibition of growth examined; settings: Tritrichomonas foetus, read-out: Reference Compound, Concurrent (MIC)
Method: as §1, §2

[3] = system: Salmonella typhimurium (ATCC 13311); test: Anti-infective in vitro assay, growth inhibition (turbidity); settings: Salmonella typhimuium (ATCC 13311)
Method: as §1, §2

CC1(C)S[C@@H]2[C@H](NC(=O)[C@H](N)c3ccccc3)C(=O)N2[C@H]1C(=O)O [Ampicillin]
MIC [1]: 0.03 µg/mL (≈ 0.0859 µM)

Cc1ncc([N+](=O)[O-])n1CCO [Metronidazole]
MIC [2]: 3 µg/mL (≈ 17.5 µM)

Gentamicin
MIC [3]: 0.3 µg/mL
